Measured values from patent US10023579B2, “Pyrrolopyrimidine compounds, use as inhibitors of the kinase LRRK2, and methods for preparation thereof” (Southern Research Institute, priority 2015, dated 2018).

Key:
[1] = target: T1, WT-LRRK2 (recombinant GST-LRRK2 delta970) (Homo sapiens, UniProt Q5S007); test: LRRK2 kinase assay, wild type (32P radiometric, peptide substrate); assay type: biochemical; conditions: WT-LRRK2 30 nM, ATP ~92 μM (Km), 30 min at 30° C.
T1 construct: Recombinant GST-LRRK2 (delta970); GST (N); host or cells: baculovirus-infected Sf9 insect cells
Description: (§1) Compounds were assessed for inhibition of LRRK2 inhibition using the following procedure. Recombinant GST-LRRK2 (delta970) purified from baculovirus infected insect cells (SF9), at least 90% pure and either wild-type sequence or bearing the pathogenic G2019S mutation, was combined into a kinase buffer at 30 nM concentration. Kinase buffer consists of 50 mM Tris HCl pH 7.4, 1 mM EDTA, and 50 μM peptide substrate (amino acid sequence […]). Experimental compounds or control (no compound) were added at desired concentrations in DMSO and water, where final concentration of DMSO in kinase reactions was 0.1% for all drug concentrations. […] Reactions were incubated at 1400 RPM at 30° C. for 30 min. and then spotted in triplicate directly onto a slot-blot apparatus fitted with phospho-cellulose paper and allowed to dry. Each slot was then washed with 10 mM phosphoric acid buffer until beta-radiation could not be detected in eluted wash buffer, usually ˜1 mL per slot. Paper within each slot were excised and radiation measured by liquid scintillation.

[2] = target: T2, G2019S-LRRK2 (recombinant GST-LRRK2 delta970) (Homo sapiens, UniProt Q5S007, G2019S); test: LRRK2 kinase assay, G2019S mutant (32P radiometric, peptide substrate); assay type: biochemical; conditions: G2019S-LRRK2 30 nM, ATP ~52 μM (Km), 30 min at 30° C.
T2 construct: Recombinant GST-LRRK2 (delta970); GST (N); host or cells: baculovirus-infected Sf9 insect cells
Description: as §1

T2 sequence (Q5S007 970-2527 G2019S limits assumed): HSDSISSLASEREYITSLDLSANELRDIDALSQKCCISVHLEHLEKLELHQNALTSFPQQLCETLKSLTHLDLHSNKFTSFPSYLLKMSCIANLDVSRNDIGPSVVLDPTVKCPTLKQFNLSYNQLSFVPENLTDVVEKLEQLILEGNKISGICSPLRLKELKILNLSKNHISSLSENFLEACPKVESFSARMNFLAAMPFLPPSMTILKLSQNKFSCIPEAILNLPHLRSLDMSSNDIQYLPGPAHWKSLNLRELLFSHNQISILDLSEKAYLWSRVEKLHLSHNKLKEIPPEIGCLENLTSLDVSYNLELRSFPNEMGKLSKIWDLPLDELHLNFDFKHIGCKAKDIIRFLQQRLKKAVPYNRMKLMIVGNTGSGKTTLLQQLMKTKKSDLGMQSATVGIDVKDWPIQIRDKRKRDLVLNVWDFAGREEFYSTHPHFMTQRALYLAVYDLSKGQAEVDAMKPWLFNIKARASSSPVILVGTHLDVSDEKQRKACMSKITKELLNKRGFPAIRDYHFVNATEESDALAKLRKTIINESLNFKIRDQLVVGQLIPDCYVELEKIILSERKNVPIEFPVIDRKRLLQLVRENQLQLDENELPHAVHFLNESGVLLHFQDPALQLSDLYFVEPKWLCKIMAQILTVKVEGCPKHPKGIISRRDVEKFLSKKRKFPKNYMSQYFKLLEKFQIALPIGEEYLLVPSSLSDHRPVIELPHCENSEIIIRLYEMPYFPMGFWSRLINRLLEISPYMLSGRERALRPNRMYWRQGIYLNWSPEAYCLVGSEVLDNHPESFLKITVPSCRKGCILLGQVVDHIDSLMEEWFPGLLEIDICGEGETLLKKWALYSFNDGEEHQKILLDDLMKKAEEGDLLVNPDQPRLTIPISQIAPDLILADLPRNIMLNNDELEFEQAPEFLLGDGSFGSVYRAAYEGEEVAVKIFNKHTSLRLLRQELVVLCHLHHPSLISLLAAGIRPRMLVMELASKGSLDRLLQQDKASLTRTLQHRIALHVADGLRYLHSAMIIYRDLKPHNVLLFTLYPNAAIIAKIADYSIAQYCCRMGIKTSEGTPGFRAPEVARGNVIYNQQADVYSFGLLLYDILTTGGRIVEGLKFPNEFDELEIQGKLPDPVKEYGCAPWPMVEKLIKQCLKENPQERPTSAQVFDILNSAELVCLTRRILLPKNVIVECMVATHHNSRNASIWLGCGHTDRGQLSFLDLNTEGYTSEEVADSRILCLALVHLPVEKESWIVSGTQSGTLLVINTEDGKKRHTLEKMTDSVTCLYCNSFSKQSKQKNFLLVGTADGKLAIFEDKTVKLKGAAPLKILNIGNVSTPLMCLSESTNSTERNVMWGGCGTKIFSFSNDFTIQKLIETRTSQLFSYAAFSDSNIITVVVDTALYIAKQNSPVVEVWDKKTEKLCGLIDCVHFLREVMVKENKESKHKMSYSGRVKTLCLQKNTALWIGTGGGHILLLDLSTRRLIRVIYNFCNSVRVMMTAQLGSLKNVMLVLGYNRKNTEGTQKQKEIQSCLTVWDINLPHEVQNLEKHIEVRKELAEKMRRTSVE
T1 sequence (Q5S007 970-2527 limits assumed): as the sequence (Q5S007 970-2527 G2019S limits assumed) above, with S1050G counted along it

- IC50 [1]: 0.064 µM
- IC50 [2]: 0.099 µM
SMILES: COCc1cc(Nc2nc(N[C@@H](C)C3CC3)c3cc[nH]c3n2)n[nH]1 [Compound 61, (S)-N4-(1-cyclopropylethyl)-N2-(5-(methoxymethyl)-1H-pyrazol-3-yl)-7H-pyrrolo[2,3-d]pyrimidine-2,4-diamine]
